Laboratory results published in patent publication US20260306491A1, “EGFR INHIBITOR FOR TREATING CANCERS COMPRISING ATYPICAL EGFR MUTATIONS” (ORIC Pharmaceuticals, Inc., priority 2023, published 2026).

Tests used:
[1] = tested on: HER2 exon 20 mutated NSCLC; experiment: Clinical evaluation in one subject (Example 12); format: in vivo, human; conditions: hemifumarate, 30 mg BID
Procedure: A subject having HER2 exon 20 mutated NSCLC was enrolled in a clinical study relating to Compound I. The cancer in the subject had been previously treated with pemetrexed/cisplatin, ipilimumab/nivolumab/carboplatin, and pemetrexed/carboplatin/pembrolizumab. The subject was enrolled in a dosing cohort that received 30 mg BID of Compound I in the form of a hemifumarate salt.

[2] = tested on: Ba/F3 cells expressing EGFR_del19/L792H; experiment: Cell viability (CellTiter-Glo); format: cell-based; conditions: Mus musculus, BaF3, 72 h, read-out: Absolute EC50 (50% growth)
Procedure: (§1) A cell-based assay was used to evaluate the potency of Compound I on cells where the growth of the cells is either driven by EGFR wild type (WT) or cells comprising atypical mutant EGFR proteins. Cell viability was assessed following treatment with compounds and the assay developed with CellTiterGlo (CTG) reagent that measures ATP levels in cells. Compound I was dissolved in DMSO to generate a 10 mM stock solution. Dosing solutions were prepared by serial dilution in DMSO followed by dilution in complete media to result in a 0.4% DMSO in the assay. Ba/F3 cells expressing EGFR mutants EGFR_G719S, EGFR_G724S, EGFR_L718Q, EGFR_L718V, EGFR_L858R/1L718Q, EGFR_L858R/1L718V, EGFR_del19/L792K. EGFR_del19/G796S were generated following co-transfection of the EGFR mutant of interest with PhiC31 integrase. Two days following transfection, the media was changed and replaced with media lacking mIL3 with the addition of human EGF (hEGF) as well as puromycin to select stable cell lines. After the cell lines were established genomic DNA (gDNA) was extracted to confirm the sequence of the construct of interest. The culture Media for Ba/F3 EGFR mutants was RPMI+10% FBS+2 mM L-Glut±10 ng/ml hEGF+0.5 pig/ml puromycin. The following reagents were used to conduct the assays: RPMI1640 with phenol red (Corning, Cat #: 15-040-CV); Fetal Bovine Serum (FBS) (Omega Scientific, Cat #: FR-11); Human Epidermal Growth Factor (hEGF) (Cell Signaling Cat #8916SC); L-Glutamine (Corning, Cat #: 25-005-CI); Puromycin (Gibco, Cat #A11138-03); assay media was the same as culture medium; CellTiter-Glo® 2.0 Cell Viability Assay (Promega, Cat #G9243), DMSO (Sigma, Cat #: D2660). The following equipment was used to conduct the assays: Bravo Liquid Handler (Agilent #G5523BA); and the following supplies: 96-well Non-Sterile Polypropylene V Bottom Plates (Corning, Cat #: 3363); 384-well Sterile White with Flat Clear Bottom Plates (Greiner, 781098); and PerkinElmer TopSeal-A Plus plate seal (Cat. #6050185).
(§2) Ba/F3 cell lines expressing either EGFR WT or mutant proteins were cultured in complete culture media at exponential growth phase for at least one week prior to assay. The different cell suspensions were counted and seeded into 384-well Sterile White Flat Clear Bottom Plates using a Bravo liquid handler, according to the appropriate cell number in 36 μl of media per well as follows: (a) Ba/F3-WT-EGFR: 2000 cells per well of a 384 well plate; (b) Ba/F3-G719S-EGFR: 2000 cells per well of a 384 well plate; (c) Ba/F3 G724S-EGFR: 1000 cells per well of a 384 well plate; (d) Ba/F3-L718Q-EGFR: 1000 cells per well of a 384 well plate; (e) Ba/F3-L718V-EGFR: 1000 cells per well of a 384 well plate; (f) Ba/F3-L858R/L718Q-EGFR: 1000 cells per well of a 384 well plate; (g) Ba/F3-L858R/L718V-EGFR: 1000 cells per well of a 384 well plate; (h) Ba/F3-del19/L792H-EGFR: 1000 cells per well of a 384 well plate; (i) Ba/F3-del19/G796S-EGFR: 1000 cells per well of a 384 well plate.
(§3) Compound I was solubilized in DMSO as 10 mM stock solutions. These were stored as aliquots at −80° C. and used only once after thawing. The highest concentration of Compound I in the final assay plate was 500 nM. To prepare the compound dilutions intermediate dilution plates were prepared using the Bravo liquid handler by performing 12-point ⅓-fold serial dilutions in DMSO to a final concentration of 250-fold the concentration in the final assay plate, followed by a 1/25 dilution into complete assay media. Compound dilutions in media were added to cells (final assay plate) by dispensing 4 μL into cells plated the same day in 36 μl of medium of media. Plates were placed in a 37° C., 5% CO2 incubator. Following 72 hours of incubation, plates were left to equilibrate at room temperature before the addition of 1:1 ratio of CTG 2.0 using the Bravo liquid handler. […]

[3] = tested on: Ba/F3 cells expressing EGFR_L718V; experiment: Cell viability (CellTiter-Glo); format: cell-based; conditions: Mus musculus, BaF3; 72 hours; average ± standard deviation; read-out: Absolute EC50 (50% growth)
Procedure: as §1, §2, §3

[4] = tested on: Ba/F3 cells expressing EGFR_del19/G796S; experiment: Cell viability (CellTiter-Glo); format: cell-based; conditions: Mus musculus, BaF3; 72 hours; average ± standard deviation; read-out: Absolute EC50 (50% growth)
Procedure: as §1, §2, §3

[5] = tested on: Ba/F3 cells expressing EGFR_L718Q; experiment: Cell viability (CellTiter-Glo); format: cell-based; conditions: Mus musculus, BaF3; 72 hours; average ± standard deviation; read-out: Absolute EC50 (50% growth)
Procedure: as §1, §2, §3

[6] = tested on: Ba/F3 cells expressing EGFR_L858R/L718Q; experiment: Cell viability (CellTiter-Glo); format: cell-based; conditions: Mus musculus, BaF3; 72 hours; average ± standard deviation; read-out: Absolute EC50 (50% growth)
Procedure: as §1, §2, §3

[7] = tested on: Ba/F3 cells expressing EGFR_G724S; experiment: Cell viability (CellTiter-Glo); format: cell-based; conditions: Mus musculus, BaF3; 72 hours; average ± standard deviation; read-out: Absolute EC50 (50% growth)
Procedure: as §1, §2, §3

[8] = tested on: Ba/F3 cells expressing EGFR_L858R/L718V; experiment: Cell viability (CellTiter-Glo); format: cell-based; conditions: Mus musculus, BaF3; 72 hours; average ± standard deviation; read-out: Absolute EC50 (50% growth)
Procedure: as §1, §2, §3

[9] = tested on: Ba/F3 cells expressing EGFR_G719S; experiment: Cell viability (CellTiter-Glo); format: cell-based; conditions: Mus musculus, BaF3; 72 hours; average ± standard deviation; read-out: Absolute EC50 (50% growth)
Procedure: as §1, §2, §3

[10] = tested on: Ba/F3 cells expressing EGFR WT; experiment: Cell viability (CellTiter-Glo); format: cell-based; conditions: Mus musculus, BaF3; 72 hours; average ± standard deviation; read-out: Absolute EC50 (50% growth)
Procedure: as §1, §2, §3

## C=CC(=O)Nc1cc(Nc2cc(N3OCC[C@@H]3c3cc(F)cc(F)c3)ncn2)c(OC)cc1N1CCC(N2CCN(C3CC3)CC2)CC1 [Compound I, N-[2-[4-(4-cyclopropyl-1-piperazinyl)-1-piperidinyl]-5-[[6-[(3R)-3-(3,5-difluorophenyl)-2-isoxazolidinyl]-4-pyrimidinyl]amino]-4-methoxyphenyl]-2-propenamide]
[1]; after cycle 1
  Non-target lesions response: non-CR/non-PD
[1]; after cycle 1 (28 days)
  Reduction of all target lesions: 100%
[1]; after cycle 1, confirmed end of cycle 2
  Tumor response: partial response
[1]; continuing
  Duration of dosing at data cutoff: on dosing cycle 3
[1]; data cutoff Sep. 26, 2023
  EGFR-related adverse events: Grade 2 rash and Grade 2 nausea
[1]; end of cycle 2
  Reduction of all target lesions: 100%
[2]
  EC50: 2.5 ± 1.8 nM
[3]
  EC50: 0.9 ± 0.8 nM
[4]
  EC50: 1.1 ± 0.7 nM
[5]
  EC50: 27.1 ± 6.4 nM
[6]
  EC50: 0.8 ± 0.5 nM
[7]
  EC50: 1.4 ± 0.9 nM
[8]
  EC50: 0.2 ± 0.2 nM
[9]
  EC50: 0.7 ± 0.1 nM
[10]
  EC50: 6.6 ± 4.3 nM
